Entries after “also recorded” stand apart in the source; their conditions may differ. Where two headings read alike, the source gives them in different places.
What was measured:
mushroom tyrosinase [1] = biological target: mushroom tyrosinase; set-up: method as in doi:10.1039/C5RA14465E; conditions: data previously reported; cited from earlier work
[2] = system: Collagenase from Clostridium histolyticum; experiment: Collagenase inhibition assay (FALGPA substrate); assay type: biochemical; conditions: for Enzyme inhibition Collagenase: 100 μM; for IC50: mean ± SD of three independent experiments
Procedure: Results from all the inhibition tests described below were reported as a percentage of the blank control. Since the compounds were dissolved in DMSO, in the assays carried out without compounds, DMSO was added to the reaction mixture as blank control. […] Data from activity experiments were recorded using an Ultrospec 2100 spectrophotometer (Biochrom Ltd., Cambridge, UK).
Collagenase from Clostridium histolyticum (1 U/mL) was prepared in 0.05 M Tricine buffer (pH 7.5), with 0.4 M NaCl and 0.01 M CaCl2, and incubated with different concentrations of test samples for 15 minutes. After adding the N-(3-[2-Furyl]-acryloyl)-Leu-Gly-Pro-Ala (FALGPA) substrate, prepared in the same buffer solution reaching a final concentration of 0.8 mM, the absorbance was registered at 340 nm. Epigallocatechin gallate was used as a positive control.

mushroom tyrosinase [3] = experiment: Tyrosinase inhibition assay (L-DOPA substrate); assay type: biochemical; conditions: for Enzyme inhibition Tyrosinase: 50 μM
Procedure: (§1) Since the compounds were dissolved in DMSO, in the assays carried out without compounds, DMSO was added to the reaction mixture as blank control. […] Data from activity experiments were recorded using an Ultrospec 2100 spectrophotometer (Biochrom Ltd., Cambridge, UK).
The inhibition of tyrosinase was monitored by using DOPA as substrate. The reaction solution contained phosphate buffer (25 mM, pH 6.8) and mushroom tyrosinase (100 U/mL), with or without test samples.

[4] = system: Human skin keratinocyte cell line (HaCaT); experiment: HaCaT cell viability (MTT assay); assay type: cell-based; conditions: 10–200 μM, 24 h
Procedure: Human skin keratinocyte cell line (HaCaT; CLS–Cell Lines Service, Eppelheim, Germany) was cultured in Dulbecco’s Modified Eagle’s Medium (DMEM) with 10% fetal bovine serum (FBS; Gibco, NY, USA) and 1% penicillin/streptomycin at 37 °C in a humidified atmosphere with 5% CO2. Cell viability was determined by the MTT (3-(4,5-dimethylthiazol-2-yl)-2,5-diphenyltetrazolium bromide) colorimetric assay, as previously reported. Briefly, HaCaT cells were seeded in 96-well plates and incubated with compounds at different concentrations (0–200 µM). After 24 h, cells were labelled with MTT solution for 3 h at 37 °C. DMSO was added to the formed violet formazan precipitates and the absorbance of each well was measured at 560 nm.

[5] = biological target: porcine pancreatic elastase (Sus scrofa, UniProt P00772); experiment: Elastase inhibition assay (SANA substrate); assay type: biochemical; conditions: for inhibition at 50 µM: read-out: Enzyme inhibition Elastase; for IC50: mean ± SD of three independent experiments
Procedure: as §1
The inhibition of elastase was determined by measuring the production of p-nitroaniline during the reaction of the enzyme with the N-succ-(Ala)3-nitroanilide (SANA) substrate. The assay was carried out in Tris-HCl buffer (0.1 M, pH 8.0) containing porcine pancreatic elastase (3.3 µg/mL). The reaction mixture was incubated in the presence or in the absence of the test compounds for 20 minutes and, once the substrate (1.6 mM) was added, the enzyme activity was monitored at 410 nm.

hyaluronidase = biological target: T1, hyaluronidase (Bos taurus, UniProt Q2YDK3); experiment: Hyaluronidase inhibition assay; assay type: biochemical; conditions: ratio of IC50 values
T1 sequence (Q2YDK3 36-553): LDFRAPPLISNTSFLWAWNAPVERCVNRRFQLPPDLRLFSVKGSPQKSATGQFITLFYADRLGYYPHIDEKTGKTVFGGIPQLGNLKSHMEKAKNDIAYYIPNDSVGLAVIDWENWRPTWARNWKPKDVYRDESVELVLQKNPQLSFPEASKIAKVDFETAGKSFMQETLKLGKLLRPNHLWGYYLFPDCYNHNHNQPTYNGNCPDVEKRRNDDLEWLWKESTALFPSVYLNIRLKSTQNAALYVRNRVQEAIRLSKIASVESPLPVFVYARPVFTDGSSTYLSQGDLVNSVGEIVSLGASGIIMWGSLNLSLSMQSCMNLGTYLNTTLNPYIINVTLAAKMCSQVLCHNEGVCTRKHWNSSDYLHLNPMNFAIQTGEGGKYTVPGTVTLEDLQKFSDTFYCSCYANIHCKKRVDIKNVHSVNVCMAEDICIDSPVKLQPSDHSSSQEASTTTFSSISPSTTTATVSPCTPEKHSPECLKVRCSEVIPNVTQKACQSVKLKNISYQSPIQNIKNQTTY
Procedure: as §1
Inhibition of hyaluronidase was determined following the method reported by Chompoo and co-authors. A 5 μL test sample was incubated with 100 μL of enzyme solution (1.5 U) containing 20 mM sodium phosphate buffer (pH 7.0) with 77 mM NaCl and bovine serum albumin (BSA) 0.01%. […] After 10 minutes at room temperature, the absorbance was monitored at 600 nm.

porcine pancreatic elastase, sequence (P00772 27-266): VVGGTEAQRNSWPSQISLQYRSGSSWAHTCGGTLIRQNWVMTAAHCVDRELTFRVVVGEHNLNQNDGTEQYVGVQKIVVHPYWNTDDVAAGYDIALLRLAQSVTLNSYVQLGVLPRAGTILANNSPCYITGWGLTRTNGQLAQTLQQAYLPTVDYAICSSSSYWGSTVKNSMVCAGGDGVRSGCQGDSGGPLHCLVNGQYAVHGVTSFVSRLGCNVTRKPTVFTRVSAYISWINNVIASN

Compound	IC50 (mushroom tyrosinase [1])	Enzyme inhibition Collagenase [2]	IC50 [2]	Enzyme inhibition Tyrosinase (mushroom tyrosinase [3])	times more active than the standard inhibitor kojic acid (tyrosinase) (mushroom tyrosinase [3]; ratio of IC50 values)	Cytotoxicity on HaCaT cell viability [4]	melting point	inhibition at 50 µM [5]	IC50 [5]	times more active than the reference compound oleanolic acid (hyaluronidase) (hyaluronidase)	IC50 (mushroom tyrosinase [3]; mean ± SD of three independent experiments)
O=c1oc2cc(O)cc(O)c2cc1-c1ccc(Br)cc1 [Compound 1, 3-(4′-Bromophenyl)-5,7-dihydroxycoumarin]	1.05 ± 0.06 µM	42.6%	123 ± 2.2 µM	98.3%	17 times	non-cytotoxic; also recorded: no toxicity	273 to 275 °C	15.6%	> 50 µM	–	–
O=c1oc2cc(O)c(O)cc2cc1-c1ccc(Br)cc1 [Compound 4, 3-(4′-Bromophenyl)-6,7-dihydroxycoumarin]	–	N.I.	> 150 µM	58.3%	–	–	–	30.5%	> 50 µM	1.9 times	39.9 ± 0.7 µM

Source: paper PMC9611449, “Hydroxy-3-Phenylcoumarins as Multitarget Compounds for Skin Aging Diseases: Synthesis, Molecular Docking and Tyrosinase, Elastase, Collagenase and Hyaluronidase Inhibition, and Sun Protection Factor” (Molecules, 2022)
